In brackets after ≈: the same amount, converted by molar mass.

A word on the inhibition: it is the share of the control response that was lost under treatment. A lower inhibition goes with little suppression. A word on the EC50: it is the concentration at which the effect is half-maximal. In general, solubility refers to the concentration that dissolves in the medium under given conditions. The low end stands for little dissolved substance, the high end for much dissolved substance.

The target in one data set is hERG channel (Homo sapiens, UniProt Q12809). The data set can be described thus: hERG manual patch clamp assay. Format: cell-based. To be noted: HEK 293 cells stably expressing hERG channel, pH 7.35, 10 μM compound. The protocol: Cell Lines and Cell Culture
HEK 293 cell line stably expressing hERG channel (Cat # K1236) was purchased from Invitrogen. The cells were cultured in 85% DMEM, 10% dialyzed FBS, 0.1 mM NEAA, 25 mM HEPES, 100 U/mL Penicillin-Streptomycin and 5 μg/mL Blasticidin and 400 μg/mL Geneticin. Cells were split using TrypLE™ Express about three times a week, and maintained between ˜40% to ˜80% confluence. Before the assay, the cells were transferred onto the coverslips at 5×10^5 cells/per 6 cm cell culture dish and induced with doxycycline at 1 μg/mL for 48 hours.
• 1) External solution (in mM): 132 NaCl, 4 KCl, 3 CaCl2, 0.5 MgCl2, 11.1 glucose, and 10 HEPES (pH adjusted to 7.35 with NaOH) • 2) Internal solution (in mM): 140 KCl, 2 MgCl2, 10 EGTA, 10 HEPES and 5 MgATP (pH adjusted to 7.35 with KOH) • 3) hERG currents were tested in presence of 10 μM compound concentration with final concentration of DMSO of 0.1%. Experimental Procedure • 1) Removed the coverslip from the cell culture dish and placed it on the microscope stage in bath chamber. • 2) Located a desirable cell using the 10× objective. Located the tip of the electrode under the microscope using the 10× objective by focusing above the plane of the cells. Once the tip was in focus, advanced the electrode downwards towards the cell using the coarse controls of the manipulator, while simultaneously moving the objective to keep the tip in focus. • 3) When directly over the cell, switched to the 40× objective and used the fine controls of the manipulator to approach the surface of the cell in small steps. • 4) Applied gentle suction through the side-port of the electrode holder to form a gigaohm seal. • 5) Used the Cfast to remove the capacity current that was in coincidence with the voltage step. Obtained the whole cell configuration by applying repetitive, brief, strong suction until the membrane patch ruptured. • 6) Set membrane potential to −60 mV at this point to ensure that hERG channels were not • open. The spikes of capacity current should then be cancelled using the Cslow on the amplifier. 7) Set holding potential to −90 mV for 500 ms; recorded current at 50 kHz and filtered at 10 kHz. Leaking current was tested at −80 mV for 500 ms. • 8) The hERG current was elicited by depolarizing at +30 mV for 4.8 seconds and then the voltage was taken back to −50 mV for 5.2 seconds to remove the inactivation and observe the deactivating tail current. The maximum amount of tail current size was used to determine hERG current amplitude. • 9) Recorded current for 120 seconds to assess the current stability. Only stable cells with recording parameters above threshold were applied for the compound administrations. • 10) Firstly vehicle control was applied to the cells to establish the baseline. […] In order to ensure the good performance of cultured cells and operations, the positive control, Dofetilide, with 5 dose concentration was also used to test the same batch of cells. Data Analysis
The following criteria were used to determine data acceptability. • 1) Initial seal resistance >1 GΩ; • 2) Leak currents <50% of the control peak tail currents at any time; • 3) The peak tail amplitude >250 pA; • 4) Membrane resistance Rm>500 MΩ; • 5) Access resistance (Ra)<10 MΩ; • 6) Apparent run-down of peak current <2.5% per min.
Data that met the above criteria for hERG current quality were further analyzed as the following steps. • 1) Percent hERG current inhibition was calculated using the following equation. • Note: PatchMaster or Clampfit software was used to extract the peak current from the original data.
[formula] • 2) The dose response curve of test compounds was plotted with percentage of hERG current inhibition against the concentration of test compounds using Graphpad Prism 6.0, and fit to a sigmoid dose-response curve with a variable slope.
Background: The hERG channel carries a current that helps repolarise heart muscle cells.

Data set [1] deals with Human Heme Oxygenase-1 (HMOX-1). The experiment in a line: ELISA assay to measure human heme oxygenase-1 (HMOX-1) in HepG2 lysate. To be noted: human HMOX1 protein level in HepG2 lysate; * = average of 2 or more EC50 determinations; NA = Not Active; read-out: EC50. Format: cell-based. In outline: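 Treated HepG2 cells were lysed in PBS with 0.5% Triton X100, 1 mM EDTA and protease inhibitors, and lysates were diluted 1:20. HO-1 was measured by sandwich ELISA (biotinylated detection antibody, streptavidin-HRP, chemiluminescence) at room temperature against a standard curve from 20 ng/ml. EC50 and fold change were expressed relative to DMSO control.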
Background: An ELISA detects its analyte on a solid surface through an enzyme-linked reagent.

The nature of a further data set: Kinetic solubility. The format is physicochemical. To be noted: Dulbecco's phosphate buffer saline (DPBS), aqueous buffer, kinetic from dmso stock, DPBS pH 7.4, 25° C., 200 μM test compound. The essentials: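 Compound from 10 mM DMSO stock diluted to 200 μM final in DPBS pH 7.4 and, separately, in DMSO, in duplicate. Shaken 16 h at 25 °C, then centrifuged 20 min at 25 °C. Supernatant analysed by HPLC.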

Sequence of hERG channel (Q12809 whole entry): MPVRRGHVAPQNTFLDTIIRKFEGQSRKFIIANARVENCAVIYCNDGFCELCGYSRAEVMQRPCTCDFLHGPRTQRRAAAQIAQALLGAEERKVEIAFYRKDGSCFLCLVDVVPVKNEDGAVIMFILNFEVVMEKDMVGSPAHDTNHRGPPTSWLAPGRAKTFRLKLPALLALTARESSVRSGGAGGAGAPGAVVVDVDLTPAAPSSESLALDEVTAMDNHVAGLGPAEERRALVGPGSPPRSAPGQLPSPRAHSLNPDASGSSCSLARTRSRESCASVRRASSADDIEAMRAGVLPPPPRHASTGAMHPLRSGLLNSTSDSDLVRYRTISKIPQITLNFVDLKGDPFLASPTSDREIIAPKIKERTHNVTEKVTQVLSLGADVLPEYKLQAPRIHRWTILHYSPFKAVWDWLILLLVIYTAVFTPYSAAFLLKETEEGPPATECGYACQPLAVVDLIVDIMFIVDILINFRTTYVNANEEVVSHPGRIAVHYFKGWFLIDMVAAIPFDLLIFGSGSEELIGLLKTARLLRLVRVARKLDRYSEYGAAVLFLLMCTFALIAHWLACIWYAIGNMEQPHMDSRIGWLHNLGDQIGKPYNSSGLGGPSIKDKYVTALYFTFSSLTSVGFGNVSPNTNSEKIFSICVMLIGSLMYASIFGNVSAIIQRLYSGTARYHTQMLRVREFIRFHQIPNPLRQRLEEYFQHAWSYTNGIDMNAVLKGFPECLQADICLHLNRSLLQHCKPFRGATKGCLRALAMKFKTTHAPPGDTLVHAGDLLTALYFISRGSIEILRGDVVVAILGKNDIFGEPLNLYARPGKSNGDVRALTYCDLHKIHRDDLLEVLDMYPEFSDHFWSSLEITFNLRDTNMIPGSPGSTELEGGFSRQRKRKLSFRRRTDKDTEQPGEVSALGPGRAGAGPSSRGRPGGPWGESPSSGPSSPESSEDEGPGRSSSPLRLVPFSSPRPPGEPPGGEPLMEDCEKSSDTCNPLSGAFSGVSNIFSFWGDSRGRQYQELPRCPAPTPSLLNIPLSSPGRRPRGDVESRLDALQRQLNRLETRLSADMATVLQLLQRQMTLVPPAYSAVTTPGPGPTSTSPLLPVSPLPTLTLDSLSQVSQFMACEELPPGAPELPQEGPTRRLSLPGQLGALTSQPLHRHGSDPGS

On hERG channel, `CC(O)CNC(=O)c1ccc2c(c1)nc(Nc1nc3ccccc3o1)n2C` (stereo not drawn) [Example 23, 2-(benzo[d]oxazol-2-ylamino)-N-(2-hydroxypropyl)-1-methyl-1H-benzo[d]imidazole-5-carboxamide] had an inhibition at 10 µM of 24%. The EC50 in data set [1] came to 2.1 µM. The solubility at 16 h in “Kinetic solubility” was greater than 20 µM.

For `CC(O)COCCNC(=O)c1ccc2c(c1)nc(Nc1nc3ccccc3o1)n2C` (stereo not drawn) [Example 25], on hERG channel, the inhibition at 10 µM was 8%. For the same molecule, the EC50 in data set [1] was 2.2 µM. Moreover, the solubility at 16 h in “Kinetic solubility” came out at 6.1 µM (≈ 2.5 µg/mL).

Turning to `Cn1c(Nc2nc3ccccc3o2)nc2cc(C(=O)NCC3(O)COC3)ccc21` [Example 26, 2-(benzo[d]oxazol-2-ylamino)-N-((3-hydroxyoxetan-3-yl)methyl)-1-methyl-1H-benzo[d]imidazole-5-carboxamide], on hERG channel, at 10 µM the inhibition was 18%. Besides, the concentration for a half-maximal effect (EC50) in data set [1] stood at 2 µM. The molecule further came in with a solubility at 16 h in the data set “Kinetic solubility” of 8.6 µM (≈ 3.38 µg/mL).

On hERG channel, `Cn1c(Nc2nc3ccccc3o2)nc2cc(C(=O)NCCN3CCCC3)ccc21` [Example 28, 2-(benzo[d]oxazol-2-ylamino)-1-methyl-N-(2-(pyrrolidin-1-yl)ethyl)-1H-benzo[d]imidazole-5-carboxamide] returned an inhibition at 10 µM of 64%. In data set [1], the EC50 came to 1.6 µM. In addition, in the data set “Kinetic solubility”, the solubility at 16 h was 11.3 µM (≈ 4.57 µg/mL).

With `Cn1c(Nc2nc3ccc(C(F)(F)F)cc3o2)nc2cc(C(=O)O)ccc21` [Example 31, 1-methyl-2-((6-(trifluoromethyl)benzo[d]oxazol-2-yl)amino)-1H-benzo[d]imidazole-5-carboxylic acid], 10 µM produced 0% inhibition against hERG channel. Further, the EC50 in data set [1] stood at 1.1 µM. Further, in “Kinetic solubility”, the solubility at 16 h came out at 14.9 µM (≈ 5.61 µg/mL).

On hERG channel, `Cn1c(Nc2nc3ccc(C(F)(F)F)cc3o2)nc2cc(C(=O)NCCOCCO)ccc21` [Example 34] gave an inhibition at 10 µM of 61%. The EC50 in data set [1] was determined as 0.8 µM. The solubility at 16 h in “Kinetic solubility” came to 8 µM (≈ 3.71 µg/mL).

As to `Cn1c(Nc2nc3ccc(OC(F)(F)F)cc3o2)nc2cc(C(=O)NCCO)ccc21` [Example 53, N-(2-hydroxyethyl)-1-methyl-2-((6-(trifluoromethoxy)benzo[d]oxazol-2-yl)amino)-1H-benzo[d]imidazole-5-carboxamide], the inhibition at 10 µM against hERG channel was determined as 70%. Moreover, the EC50 in data set [1] is 1.1 µM. The solubility at 16 h in “Kinetic solubility” came to 7.3 µM (≈ 3.18 µg/mL).

Regarding `COCCOc1ccc2nc(Nc3nc4cc(C(=O)NCCO)ccc4n3C)oc2c1` [Example 57, N-(2-hydroxyethyl)-2-((6-(2-methoxyethoxy)benzo[d]oxazol-2-yl)amino)-1-methyl-1H-benzo[d]imidazole-5-carboxamide], the inhibition at 10 µM at hERG channel is 15%. In addition, in data set [1], the EC50 was 1.2 µM. In “Kinetic solubility”, this molecule registered a solubility at 16 h of 11.2 µM (≈ 4.76 µg/mL).

In turn, `COCCOc1ccc2nc(Nc3nc4cc(C(=O)NCCOCCO)ccc4n3C)oc2c1` [Example 58, N-(2-(2-hydroxyethoxy)ethyl)-2-((6-(2-methoxyethoxy)benzo[d]oxazol-2-yl)amino)-1-methyl-1H-benzo[d]imidazole-5-carboxamide] registered an inhibition at 10 µM at hERG channel of 11%. In data set [1], the EC50 is 1.7 µM. The same molecule had a solubility at 16 h in “Kinetic solubility” of 7.7 µM (≈ 3.62 µg/mL).

On hERG channel, `Cn1c(Nc2nc3ccc(OC(F)F)cc3o2)nc2cc(C(=O)O)ccc21` [Example 62, 2-((6-(difluoromethoxy)benzo[d]oxazol-2-yl)amino)-1-methyl-1H-benzo[d]imidazole-5-carboxylic acid] yielded an inhibition at 10 µM of 13%. Also, the EC50 in data set [1] amounted to 5.1 µM. The solubility at 16 h in “Kinetic solubility” is 16.2 µM (≈ 6.06 µg/mL).

In the case of `COCCNC(=O)c1ccc2c(c1)nc(Nc1nc3ccc(F)cc3o1)n2C` [Example 69, 2-((6-fluorobenzo[d]oxazol-2-yl)amino)-N-(2-methoxyethyl)-1-methyl-1H-benzo[d]imidazole-5-carboxamide], the inhibition at 10 µM against hERG channel was found to be 38%. In data set [1], the EC50 amounted to 0.66 µM. The molecule also had a solubility at 16 h in the data set “Kinetic solubility” of less than 5 µM.

`COCCn1c(Nc2nc3cc(OC(F)(F)F)ccc3[nH]2)nc2cc(C(=O)O)ccc21` [Example 75, 1-(2-methoxyethyl)-2-((5-(trifluoromethoxy)-1H-benzo[d]imidazol-2-yl)amino)-1H-benzo[d]imidazole-5-carboxylic acid] gave an inhibition at 10 µM at hERG channel of 9%. Also, in data set [1], the EC50 turned out to be 0.37 µM. This molecule came in with a solubility at 16 h in “Kinetic solubility” of 11.6 µM (≈ 5.05 µg/mL).

`CCn1c(Nc2nc3ccc(OC(F)(F)F)cc3o2)nc2cc(C(=O)NCCO)ccc21` [Example 86, 1-ethyl-N-(2-hydroxyethyl)-2-((6-(trifluoromethoxy)benzo[d]oxazol-2-yl)amino)-1H-benzo[d]imidazole-5-carboxamide]: the inhibition at 10 µM at hERG channel was 64%. In addition, the EC50 in data set [1] amounted to 1.3 µM. In “Kinetic solubility”, this molecule returned a solubility at 16 h of 7.1 µM (≈ 3.19 µg/mL).

The molecule `CN(C)CC(=O)NCCONC(=O)c1ccc2c(c1)nc(Nc1nc3ccccc3o1)n2C` [Example 121, 2-(benzo[d]oxazol-2-ylamino)-N-(2-(2-(dimethylamino)acetamido)ethoxy)-1-methyl-1H-benzo[d]imidazole-5-carboxamide] had an inhibition at 10 µM against hERG channel of 66%. The EC50 in data set [1] was determined as 1.4 µM. In addition, in the data set “Kinetic solubility”, the solubility at 16 h worked out at 9 µM (≈ 4.06 µg/mL).

Molecule `CN(C)CCONC(=O)c1ccc2c(c1)nc(Nc1nc3ccc(C(F)(F)F)cc3o1)n2C` [Example 122, N-(2-(dimethylamino)ethoxy)-1-methyl-2-((6-(trifluoromethyl)benzo[d]oxazol-2-yl)amino)-1H-benzo[d]imidazole-5-carboxamide] showed an inhibition at 10 µM on hERG channel of 87%. The EC50 in data set [1] amounted to 0.4 µM. In the data set “Kinetic solubility”, this molecule showed a solubility at 16 h of 5.1 µM (≈ 2.36 µg/mL).

Take `COCCOc1ccc2nc(Nc3nc4cc(C(=O)NOCCO)ccc4n3C)oc2c1` [Example 128, N-(2-hydroxyethoxy)-2-((6-(2-methoxyethoxy)benzo[d]oxazol-2-yl)amino)-1-methyl-1H-benzo[d]imidazole-5-carboxamide]: at hERG channel, the inhibition at 10 µM was determined as 18%. For the same molecule, in data set [1], the EC50 amounted to 1.2 µM. This molecule came in with a solubility at 16 h in “Kinetic solubility” of 4.7 µM (≈ 2.07 µg/mL).

In the case of `Cn1c(Nc2nc3ccc(N4CCCC4)cc3o2)nc2cc(C(=O)NCCOCCO)ccc21` [Example 137, N-(2-(2-hydroxyethoxy)ethyl)-1-methyl-2-((6-(pyrrolidin-1-yl)benzo[d]oxazol-2-yl)amino)-1H-benzo[d]imidazole-5-carboxamide], the inhibition at 10 µM at hERG channel amounted to 18%. In addition, in data set [1], the EC50 came out at 1.3 µM. The solubility at 16 h in “Kinetic solubility” worked out at 6.9 µM (≈ 3.21 µg/mL).
